Assay results reported in patent publication US20240398899A1 (priority 2021, published 2024).

Assays:
Assay type in all cases: cell-based, human
SH-SY5Y neuronal cells = experiment: Mitochondrial membrane potential against MPP+ iodide damage, JC-1 assay; conditions: MPP+ iodide 1 mM; for Mitochondrial membrane potential: red/green fluorescence ratio
Protocol: The plated cells were incubated overnight in 5% CO2 incubator at 37° C. After 24 h, cells were treated with concentrations of recombinant lectin protein having SEQ ID NO: 1 ranging from 1 μg/ml-50 μg/ml for 24 h. After 24 h of treatment, cells were exposed to damage (MPP+ iodide 1 mM) for 24 h. […] Untreated cells were included as control. Cells treated with Deprenyl served as positive control. After MPP+ iodide exposure, the protective effect of recombinant lectin protein having SEQ ID NO: 1 on mitochondrial membrane potential was assessed by JC-1 assay as follows; after incubation, the supernatants were discarded and 100 μl of JC1-dye solution (prepared by diluting 1 mM DMSO stock in to 10 μM in 1×PBS) was added to each well. The cells were then incubated with the dye in CO2 incubator at 37° C. for 15 min. After 15 min of incubation, the supernatant was removed, and the cells were washed twice with 1×PBS (phosphate buffer saline). 100 μl of 1×PBS was finally added to each well. Red fluorescence (excitation 550 nm, emission 600 nm) and green fluorescence (excitation 485 nm, emission 535 nm) were measured using Biotek Synergy HT plate reader. The mitochondrial membrane potential (Δψm) was calculated as the ratio of intensity of red fluorescence to intensity of green fluorescence described as follows: • Δψm=Intensity of red fluorescence/Intensity of green fluorescence • The percentage increase/restoration in Mitochondrial Membrane Potential against MPP+ iodide damage was calculated as:
[formula] • Where X=Δψm corresponding to SEQ ID NO: 1+ MPP+ iodide treated cells • R=Δψm corresponding to control cells (MPP+ iodide damage alone)

Calbindin D = experiment: Parkinson biomarker multiplex analysis/ELISA, MPP+ damaged SH-SY5Y; conditions: MPP + Iodide (2 mM)
Protocol: (§1) After overnight incubation as in the previous examples, cells were treated with recombinant lectin protein having SEQ ID NO: 1 at different concentrations ranging from 0.001 μg/ml-1 μg/ml for 24 h for Parkinson disease and 0.01 μg/ml-25 μg/ml for 24 h for Alzheimer's disease. • Parkinson Disease: After 24 h of pre-treatment with recombinant lectin protein having SEQ ID NO: 1, cells were exposed (MPP+) for another 24 h. Cells treated with MPP+Iodide were included as Control. […] The cells treated with Galantamine were included as positive Control.
(§2) The levels of markers were determined by multiplex analysis as: Cell culture supernatants were diluted (1:2) with Calibrator Diluent. 50 μl of standard or sample was added per well. 50 μl of the microparticle cocktail was added to each well of the microplate and covered with a foil plate sealer. The plate was incubated for 2 hours at room temperature on a horizontal orbital microplate shaker. The plate was washed using a magnetic device designed to accommodate a microplate. Washing was done by applying the magnet to the bottom of the microplate, allowing 1 minute before removing the liquid, filling each well with wash buffer (100 μl) and allowing 1 minute before removing the liquid again. 50 μl of diluted Biotin-Antibody Cocktail was added to each well. Covered the plate with a foil plate sealer and incubated for 1 hour at room temperature on the shaker. Repeated the wash step. 50 μl of diluted Streptavidin-PE was added to each well. The plate was securely covered with a foil plate sealer and incubated for 30 minutes at room temperature on the shaker. Repeated the wash step. The microparticles were resuspended by adding 100 μl of Wash Buffer to each well. The plate was incubated for 2 minutes on the shaker and read within 90 minutes using Magpix® multiplex machine. Levels of biomarkers for Parkinson's and Alzheimer's disease were estimated using Magpix® multiplex machine.
(§3) For Parkinson's the percent modulation in each sample was determined as follows:
(§4) [{Concentration of biomarkers(pg/ml) in SEQ ID NO:1+MPP+Iodide treated cells)−Concentration of biomarkers(pg/ml) in Control cells(MPP+Iodide alone treated)}/Concentration of biomarkers(pg/ml) in Control cells(MPP+Iodide alone treated)]*100

Dopamine = experiment: as above; conditions: MPP + Iodide (2 mM)
Protocol: as §1, §2, §3, §4

ICAM1/CD54 = experiment: as above; conditions: MPP + Iodide (2 mM)
Protocol: as §1, §2, §3, §4

Park7/DJ-1 = experiment: as above; conditions: MPP + Iodide (2 mM)
Protocol: as §1, §2, §3, §4

S100b = experiment: as above; conditions: MPP + Iodide (2 mM)
Protocol: as §1, §2, §3, §4

Serotonin = experiment: as above; conditions: MPP + Iodide (2 mM)
Protocol: as §1, §2, §3, §4

## C#CCN(C)[C@H](C)Cc1ccccc1 [Deprenyl, reference compound]
SH-SY5Y neuronal cells; 1 μM
  % Increase in Mitochondrial potential (w.r.t. control): 58.2%
  Mitochondrial membrane potential: 2.9
SH-SY5Y neuronal cells; 10 μM
  % Increase in Mitochondrial potential (w.r.t. control): 67.9%
  Mitochondrial membrane potential: 3.1
SH-SY5Y neuronal cells; 25 μM
  % Increase in Mitochondrial potential (w.r.t. control): 95.3%
  Mitochondrial membrane potential: 3.6
SH-SY5Y neuronal cells; 50 μM
  % Increase in Mitochondrial potential (w.r.t. control): 79.6%
  Mitochondrial membrane potential: 3.3
SH-SY5Y neuronal cells; 100 μM
  % Increase in Mitochondrial potential (w.r.t. control): 39.9%
  Mitochondrial membrane potential: 2.6
Calbindin D; 10 μM
  % Change of Biomarkers markers (with respect to Control) Calbindin D: 5%
Calbindin D; 50 μM
  % Change of Biomarkers markers (with respect to Control) Calbindin D: 0%
Calbindin D; 100 μM
  % Change of Biomarkers markers (with respect to Control) Calbindin D: 3.3%
Dopamine; 10 μM
  % Change of Biomarkers markers (with respect to Control) Dopamine: 21.2%
Dopamine; 50 μM
  % Change of Biomarkers markers (with respect to Control) Dopamine: 37.7%
Dopamine; 100 μM
  % Change of Biomarkers markers (with respect to Control) Dopamine: −47.2%
ICAM1/CD54; 10 μM
  % Change of Biomarkers markers (with respect to Control) ICAM1/CD54: 12.9%
ICAM1/CD54; 50 μM
  % Change of Biomarkers markers (with respect to Control) ICAM1/CD54: −23.7%
ICAM1/CD54; 100 μM
  % Change of Biomarkers markers (with respect to Control) ICAM1/CD54: −37%
Park7/DJ-1; 10 μM
  % Change of Biomarkers markers (with respect to Control) Park7/DJ-1: −6.8%
Park7/DJ-1; 50 μM
  % Change of Biomarkers markers (with respect to Control) Park7/DJ-1: −7.9%
Park7/DJ-1; 100 μM
  % Change of Biomarkers markers (with respect to Control) Park7/DJ-1: −9.2%
S100b; 10 μM
  % Change of Biomarkers markers (with respect to Control) S100b: −6.7%
S100b; 50 μM
  % Change of Biomarkers markers (with respect to Control) S100b: −6.5%
S100b; 100 μM
  % Change of Biomarkers markers (with respect to Control) S100b: −6.5%
Serotonin; 10 μM
  % Change of Biomarkers markers (with respect to Control) Serotonin: 9.1%
Serotonin; 50 μM
  % Change of Biomarkers markers (with respect to Control) Serotonin: 33%
Serotonin; 100 μM
  % Change of Biomarkers markers (with respect to Control) Serotonin: 17.1%
